Data set [1] deals with HIV-1 (JRCSF). Description: Anti-HIV activity (Test Example 1-1): MaRBLE cells infected with HIV-1 (JRCSF), compound added 2 h after seeding, luciferase readout after 7 days. To be noted: Human immunodeficiency virus 1, 168 h, 7 days culture, firefly luciferase, virus growth rate, 4 parameter Logistic Model (XLfit 4). It counts as cell-based. As to the method:
(§1) This example was carried out by reference to Journal of Clinical Microbiology, 2007, Vol. 45, pages 477 to 487.
(§2) An anti-HIV activity was evaluated using MaRBLE cells obtained by transfection of HPB-M(a) derived from human T-lymphocytes with a luciferase gene of which expressions were regulated by HIV-1 LTR and a CCR5 gene etc.
The MaRBLE cells were suspended in RPMI1640 containing 10% FCS (fetal calf serum) and penicillin/streptomycin. After infected with HIV-1 (JRCSF), the cells were seeded on a 96-well plate (1×10^5 cells/well). As a control group, the same number of uninfected cells were seeded.
After incubating the plate under the condition of 37° C. and 5% CO2 for 2 hours, a fresh culture medium or a culture medium containing an appropriately diluted test compound was added to each well.
After further culturing at 37° C. under 5% CO2 for 7 days, an intracellular luciferase activity was measured using Dual-Glo Luciferase assay system (Promega).
(§3) The virus growth rate was calculated by the following equation.
(§4) Virus growth rate (%)=(A/B)×100
(§5) A=(Firefly luciferase activity in the well with the compound)−(Firefly luciferase activity of uninfected cells)
(§6) B=(Firefly luciferase activity in the well without the compound)−(Firefly luciferase activity of uninfected cells)
The IC50 of the compound was calculated by applying virus growth rates of various concentrations to 4 parameter Logistic Model of curve-fitting software XLfit 4.

The nature of data set [2]: Pharmacokinetic study in mice (oral administration). It counts as in vivo. Conditions: mouse, serum, 25 mg/kg, male ICR mice, suspension in 0.5% methylcellulose 2.5 mg/mL at 10 mL/kg, 12 hours after administration, HPLC, read-out: serum concentration of the test compound. As to the method:
The compounds of Examples 2, 4, 5, 12 and 16 were used as test compounds.
A test compound suspended in 0.5% methylcellulose (2.5 mg/mL) was orally administered at 10 mL/kg to male ICR mice (6 week-old, three animals in a group). At 12 hours after the administration, the blood of the mice was collected, and the concentrations of the test compound in the serum were measured by HPLC.

Data set [3] in a line: Single-dose oral toxicity study in mice. It counts as in vivo. To be noted: male ICR mice, suspension in 0.5% methylcellulose, conditions observed on the next day. As for the experimental part: (§7) The compounds of Examples 2, 4 and 12 were used as test compounds.
10 mL/kg of a test compound suspended in 0.5% methylcellulose was orally administered to male ICR mice (6 week-old, one animal in a group).
On the next day after the administration, the conditions of the mice were observed.

For data set [4], the system named is bone marrow polychromatic erythrocytes. Nature of the data set: In vivo micronucleus study in mice. Conditions: male ICR mice, oral twice at 24 hour interval, bone marrow 24 hours after final administration, highest dose group with all animals alive. As for the experimental part:
as §7
A test compound suspended in 0.5% methylcellulose was orally administered to male ICR mice (8 week-old, three animals in a group) twice at a 24 hour interval. To a control group, 0.5% methylcellulose was orally administered in a similar manner.
At 24 hours after the final administration, the mice in the highest dose group in which all the animals were alive were killed by exsanguination under ether anesthesia, and one thigh bone was collected from each animal. After cutting the collected thigh bone at the proximal end, bone marrow cells were washed out with fetal calf serum to a centrifuge tube using a disposable syringe, and after centrifugation (1000 rpm, 5 minutes, HITACHI 05PR-22), a part of the supernatant was discarded to obtain a suspension of bone marrow cells. This suspension was smeared on a slide glass, and then dried followed by methanol fixation to prepare a sample.
The sample was observed by acridine orange staining.
The sample of which frequency of MNPCE exceeds 0.5% was judged positive.
Frequency of MNPCE (%)=(MNPCE number/Observed PCE number)×100

Data set [5] deals with HIV-1 (JRCSF). Description: Anti-HIV activity (Test Example 1-2): infected MaRBLE cells seeded on plate containing drug solution, luciferase readout after 7 days. Type of data set: cell-based. To be noted: Human immunodeficiency virus 1, 168 h, MaRBLE cells infected with HIV-1 (JRCSF), 7 days culture, firefly luciferase, FORECAST linear regression (Excel). As to the method: as §1, §2
A plate containing a drug solution was made by dispensing a fresh culture medium or an appropriately diluted test compound to a 96-well plate.
MaRBLE cells were suspended in RPMI1640 containing 10% FCS (fetal calf serum) and penicillin/streptomycin. After infected with HIV-1 (JRCSF), the cells were seeded on the above-described plate containing a drug solution ([…] cells/well). As a control group, the same number of uninfected cells were seeded.
After culturing at 37° C. under 5% CO2 for 7 days, an intracellular luciferase activity was measured using Dual-Glo Luciferase assay system (Promega).
as §3, §4, §5, §6
The IC50 of the compound was calculated by plotting the concentration with the logarithm and by plotting the virus growth rate with a real number, using the FORECAST function (linear regression technique) of Microsoft Office Excel 2003.

The compound `Cc1noc(C)c1-c1ccc2c(=O)cc(C)n(-c3cc(N)c(F)cc3F)c2n1` [Example 4, 1-(5-amino-2,4-difluorophenyl)-7-(3,5-dimethylisoxazol-4-yl)-2-methyl-1,4-dihydro-4-oxo-1,8-naphthyridine] gave an IC50 in the data set with HIV-1 (JRCSF) [1] of 0.38 nM. For the same compound, the concentration at 12 h in data set [2] was ≥ 0.5 µg/mL. In addition, the “dose at which the compound showed good safety (single oral dose)” value in data set [3] worked out at 750 mg/kg. In data set [4], the “micronucleus test result (frequency of MNPCE exceeding 0.5% judged positive)” value is given as “negative”.

For the compound `Cc1noc(C)c1-c1ccc2c(=O)cc(C)n(-c3cc(N)c(F)c(F)c3F)c2n1` [Example 12, 1-(5-amino-2,3,4-trifluorophenyl)-7-(3,5-dimethylisoxazol-4-yl)-2-methyl-1,4-dihydro-4-oxo-1,8-naphthyridine], the half-inhibitory concentration (IC50) in the data set on HIV-1 (JRCSF) [5] came to 1.9 nM. Also, the concentration at 12 h in data set [2] is ≥ 0.5 µg/mL. The “dose at which the compound showed good safety (single oral dose)” value in data set [3] stood at 1000 mg/kg. Further, the “micronucleus test result (frequency of MNPCE exceeding 0.5% judged positive)” value in data set [4] is given as “negative”.

For orientation: IC50 means the concentration that gives 50% inhibition. Higher therefore signals weaker potency.

The record behind these values is patent US20130005760A1, “HETEROCYCLIC COMPOUND HAVING AZOLE GROUP” (Toyama Chemical Co., Ltd., priority 2010, published 2013).
